Biological target: PAR4 (Homo sapiens (Human), UniProt Q96RI0)
Experiment: FLIPR assay in PAR4-expressing HEK293 cells (PAR4 antagonist activity)
Type: cell-based
Details: inhibition of H-Ala-Phe(4-F)-Pro-Gly-Trp-Leu-Val-Lys-Asn-Gly-NH2-induced intracellular calcium mobilization
Text: The FLIPR assay is an exemplary in vitro assay for measuring the activity of the PAR4 antagonists of the present invention. In this assay, intracellular calcium mobilization is induced in PAR4 expressing cells by a PAR4 agonist and calcium mobilization is monitored. See, e.g., Example A.
HEK293 cells stably expressing PAR4 were generated by a standard method of transfection of human PAR4 (F2R23) cDNA expression vector and selected based on PAR4 protein expression or mRNA expression. […] These cells also express endogenous PAR1 and can elicit calcium signal upon stimulation with PAR1 agonist peptide. Therefore, the same cells were also used to determine selectivity against PAR1 and agonist activity for both receptors. Cells from HEK293 PAR4 Clone 1.2A (BMS Arctic ID 383940) were propagated and used for calcium mobilization studies.
FLIPR-based calcium mobilization assay in HEK293 cells was used to measure PAR4 antagonism, agonism, and selectivity against PAR1. The activity of the PAR4 antagonists of the present invention were tested in PAR4 expressing cells by monitoring H-Ala-Phe(4-F)-[…]NH2-induced intracellular calcium mobilization. Counter screens for agonist activity and PAR1 antagonist activity were also performed. Briefly, PAR1/PAR4-expressing HEK293 cells were grown in DMEM (Life Technology, Grand Island, N.Y.) containing 10% heat-inactivated FBS, 1% Penicillin-Streptomycin, 10 μg/mL blasticidin, and 100 μg/mL Zeocin at 37° C. with 5% CO2. Cells were plated overnight prior to the experiment in a black 384-well Purecoat Amine clear bottom plate (Becton Dickinson Biosciences, San Jose, Calif.) at 10,000 cells/well in 30 μL growth medium and incubated in a humidified chamber at 37° C. with 5% CO2 overnight. Prior to compound addition, the cell medium was replaced with […] of 1× calcium and magnesium-containing Hank's Balanced Saline Solution (HBSS) (with 20 mM HEPES) and 1:1000 diluted fluorescent calcium indicator (Codex Biosolutions, Gaithersburg, Md.). After a 30 minute incubation period at 37° C. and a further 30 minute incubation and equilibration period at room temperature, 20 μL test compound (diluted in 1× HBSS buffer) was added at various concentrations at 0.17% dimethyl sulfoxide (DMSO) final concentration. Changes in fluorescence intensity were measured using a Functional Drug Screening System (FDSS, Hamamatsu, Japan) to determine agonist activities. The cells were then incubated for 30 minutes at room temperature followed by addition of 20 μL of agonist peptide for antagonist activity measurement. […] Compound potency was derived from 11-point concentration-response curves.
The following Table sets out results obtained employing various compounds of the invention tested in the FLIPR assay. As indicated above, the FLIPR assay, an in vitro assay, measures the PAR4 antagonist activity of compounds tested as described in Example A.

PAR4, sequence (Q96RI0 18-385): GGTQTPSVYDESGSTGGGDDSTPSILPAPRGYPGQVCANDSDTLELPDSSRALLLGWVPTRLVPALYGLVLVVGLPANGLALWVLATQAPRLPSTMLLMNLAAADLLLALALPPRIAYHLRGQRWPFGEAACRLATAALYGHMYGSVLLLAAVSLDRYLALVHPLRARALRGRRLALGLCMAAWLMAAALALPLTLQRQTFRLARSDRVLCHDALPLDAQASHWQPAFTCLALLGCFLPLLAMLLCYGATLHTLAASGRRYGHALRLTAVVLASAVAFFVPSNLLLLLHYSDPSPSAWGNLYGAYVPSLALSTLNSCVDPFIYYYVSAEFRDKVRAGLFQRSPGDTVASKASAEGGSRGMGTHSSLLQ

| SMILES | EC50 [nM] |
| --- | --- |
| COc1cc(OCc2cccc(NC(=O)c3ccc(Oc4ccccc4)nc3)c2)c2cc(-c3cn4nc(OC)sc4n3)oc2c1 [Example 51] | 2.3 |
| COc1nn2cc(-c3cc4c(OCc5cccc(NC(=O)c6ccccc6)c5)cccc4o3)nc2s1 [Example 52] | 0.41 |
| COc1cc(OCc2cccc(NC(=O)c3ccc(Cl)nc3)c2)c2cc(-c3cn4nc(OC)sc4n3)oc2c1 [Example 53] | 3.5 |
| COc1cc(OCc2cccc(NC(=O)c3cc(Cl)nc(Cl)c3)c2)c2cc(-c3cn4nc(OC)sc4n3)oc2c1 [Example 55] | 1.1 |
| COc1cc(OCc2cccc(NC(=O)c3ccnc(O)c3)c2)c2cc(-c3cn4nc(OC)sc4n3)oc2c1 [Example 56] | 5.5 |
| COc1cc(OCc2cccc(NC(=O)c3cncnc3)c2)c2cc(-c3cn4nc(OC)sc4n3)oc2c1 [Example 57] | 1.8 |
| COc1cc(OCc2cccc(NC(=O)c3cccnc3Cl)c2)c2cc(-c3cn4nc(OC)sc4n3)oc2c1 [Example 58] | 0.74 |
| COc1cc(OCc2cccc(NC(=O)c3c(C)noc3-c3ccccc3)c2)c2cc(-c3cn4nc(OC)sc4n3)oc2c1 [Example 59] | 3.5 |
| COc1cc(OCc2cccc(NC(=O)c3cnoc3-c3ccccc3)c2)c2cc(-c3cn4nc(OC)sc4n3)oc2c1 [Example 60] | 2.9 |
| COc1cc(OCc2cccc(NC(=O)c3cccnc3F)c2)c2cc(-c3cn4nc(OC)sc4n3)oc2c1 [Example 61] | 1.5 |
| COc1cc(OCc2cccc(NC(=O)c3cc(OCc4ccccc4)cc(C(F)(F)F)c3)c2)c2cc(-c3cn4nc(OC)sc4n3)oc2c1 [Example 62] | 57 |
| COc1cc(Cl)cc(C(=O)Nc2cccc(COc3cc(OC)cc4oc(-c5cn6nc(OC)sc6n5)cc34)c2)c1 [Example 63] | 1.4 |
| COc1cc(OCc2cccc(NC(=O)c3ccc(C)nc3Cl)c2)c2cc(-c3cn4nc(OC)sc4n3)oc2c1 [Example 64] | 1.4 |
| COc1cc(OCc2cccc(NC(=O)c3ccc(Br)cn3)c2)c2cc(-c3cn4nc(OC)sc4n3)oc2c1 [Example 65] | 1.1 |
| COc1cc(OCc2cccc(NC(=O)c3cnc(-c4ccccc4)nc3C)c2)c2cc(-c3cn4nc(OC)sc4n3)oc2c1 [Example 66] | 5.7 |
| COc1cc(OCc2cccc(NC(=O)c3cc(Cl)cc(OCc4ccccc4)c3)c2)c2cc(-c3cn4nc(OC)sc4n3)oc2c1 [Example 67] | 680 |
| COc1cc(OCc2cccc(NC(=O)c3cn4nc(C(C)(F)F)sc4n3)c2)c2cc(-c3cn4nc(OC)sc4n3)oc2c1 [Example 68] | 8.9 |
| COc1cc(OCc2cccc(NC(=O)c3ccnnc3)c2)c2cc(-c3cn4nc(OC)sc4n3)oc2c1 [Example 69] | 12 |
| COc1cc(OCc2cccc(NC(=O)c3csc(C(F)(F)F)n3)c2)c2cc(-c3cn4nc(OC)sc4n3)oc2c1 [Example 70] | 1 |
| COc1cc(OCc2cccc(NC(=O)c3cc(C)cc(C(F)(F)F)c3)c2)c2cc(-c3cn4nc(OC)sc4n3)oc2c1 [Example 71] | 1.9 |
| COc1cc(OCc2cccc(NC(=O)c3csc(-c4ccccc4)n3)c2)c2cc(-c3cn4nc(OC)sc4n3)oc2c1 [Example 72] | 2.2 |
| COc1cc(OCc2cccc(NC(=O)c3ccc(C)nc3O)c2)c2cc(-c3cn4nc(OC)sc4n3)oc2c1 [Example 73] | 3.6 |
| COc1cc(OCc2cccc(NC(=O)c3cc(OC(F)F)cc(C(F)(F)F)c3)c2)c2cc(-c3cn4nc(OC)sc4n3)oc2c1 [Example 74] | 0.95 |
| COc1cc(OCc2cccc(NC(=O)c3cc(F)ccc3C)c2)c2cc(-c3cn4nc(OC)sc4n3)oc2c1 [Example 75] | 1.7 |
| COc1cc(OCc2cccc(NC(=O)c3cc(F)cc(OC(F)(F)F)c3)c2)c2cc(-c3cn4nc(OC)sc4n3)oc2c1 [Example 76] | 2.5 |
| COc1cc(OCc2cccc(NC(=O)c3csc(-c4ccc(F)cc4)n3)c2)c2cc(-c3cn4nc(OC)sc4n3)oc2c1 [Example 77] | 120 |

| SMILES | EC50 [nM] |
| --- | --- |
| COc1cc(OC(F)F)cc(C(=O)Nc2cccc(COc3cc(OC)cc4oc(-c5cn6nc(OC)sc6n5)cc34)c2)c1 [Example 78] | 2.3 |
| COc1cc(OCc2cccc(NC(=O)c3csc(-c4cccc(C(F)(F)F)c4)n3)c2)c2cc(-c3cn4nc(OC)sc4n3)oc2c1 [Example 80] | 94 |
| COc1cc(OCc2cccc(N(C)C(=O)OC(C)(C)C)c2)c2cc(-c3cn4nc(OC)sc4n3)oc2c1 [Example 81, tert-Butyl (3-(((6-methoxy-2-(2-methoxyimidazo[2,1-b][1,3,4]thiadiazol-6-yl)benzofuran-4-yl)oxy)methyl)phenyl)(methyl)carbamate] | 4.8 |
| CNc1cccc(COc2cc(OC)cc3oc(-c4cn5nc(OC)sc5n4)cc23)c1 [Example 82, 3-(((6-Methoxy-2-(2-methoxyimidazo[2,1-b][1,3,4]thiadiazol-6-yl)benzofuran-4-yl)oxy)methyl)-N-methylaniline] | 5.2 |
| COc1cc(OCc2cccc(N(C)C(=O)c3ccccc3)c2)c2cc(-c3cn4nc(OC)sc4n3)oc2c1 [Example 83, N-(3-(((6-methoxy-2-(2-methoxyimidazo[2,1-b][1,3,4]thiadiazol-6-yl)benzofuran-4-yl)oxy)methyl)phenyl)-N-methylbenzamide] | 4.1 |
| COc1cc(OCc2cccc(N(C)C(=O)c3ccccc3C)c2)c2cc(-c3cn4nc(OC)sc4n3)oc2c1 [Example 84] | 2.5 |
| COc1cc(OCc2cccc(N(C)C(=O)c3cccc(F)c3)c2)c2cc(-c3cn4nc(OC)sc4n3)oc2c1 [Example 85] | 6.1 |
| COc1cc(OCc2cccc(N(C)C(=O)c3ccccc3OC)c2)c2cc(-c3cn4nc(OC)sc4n3)oc2c1 [Example 86] | 1.8 |
| COc1cc(OCc2cccc(N(C)C(=O)c3ccc(F)cc3)c2)c2cc(-c3cn4nc(OC)sc4n3)oc2c1 [Example 87] | 5.7 |
| COc1cc(OCc2cccc(N(C)C(=O)c3ccccc3F)c2)c2cc(-c3cn4nc(OC)sc4n3)oc2c1 [Example 88] | 3.3 |
| COc1cc(OCc2cccc(N(C)C(=O)c3ccc(C)cc3)c2)c2cc(-c3cn4nc(OC)sc4n3)oc2c1 [Example 89] | 3.5 |
| COc1cc(OCc2cccc(N(C)C(=O)c3ccc(OC)nc3)c2)c2cc(-c3cn4nc(OC)sc4n3)oc2c1 [Example 90] | 1.1 |
| COc1cc(OCc2cccc(N(C)S(=O)(=O)c3ccccc3)c2)c2cc(-c3cn4nc(OC)sc4n3)oc2c1 [Example 91] | 2 |
| COc1cc(OCc2cccc(N(C)C(=O)c3cncnc3)c2)c2cc(-c3cn4nc(OC)sc4n3)oc2c1 [Example 92] | 3.5 |
| COc1cc(OCc2cccc(N(C)C(=O)c3sc(C)nc3C)c2)c2cc(-c3cn4nc(OC)sc4n3)oc2c1 [Example 93] | 4.8 |
| COc1cc(OCc2cccc(N(C)C(C)=O)c2)c2cc(-c3cn4nc(OC)sc4n3)oc2c1 [Example 94] | 3.8 |
| COc1cc(OCc2cccc(N(C)C=O)c2)c2cc(-c3cn4nc(OC)sc4n3)oc2c1 [Example 97] | 2.5 |
| COc1cc(OCc2ccc3c(c2)N(C(=O)c2ccccc2C)CC3)c2cc(-c3cn4nc(OC)sc4n3)oc2c1 [Example 101] | 3.1 |
| COc1cc(OCc2ccc3c(c2)N(C(=O)c2cccc(F)c2)CC3)c2cc(-c3cn4nc(OC)sc4n3)oc2c1 [Example 102] | 4.1 |
| COc1cc(OCc2ccc3c(c2)N(C(=O)c2ccccc2OC)CC3)c2cc(-c3cn4nc(OC)sc4n3)oc2c1 [Example 103] | 4.5 |
| COc1cc(OCc2ccc3c(c2)N(C(=O)c2ccccc2F)CC3)c2cc(-c3cn4nc(OC)sc4n3)oc2c1 [Example 104] | 2.2 |
| COc1cc(OCc2ccc3c(c2)N(C(=O)c2ccc(C)cc2)CC3)c2cc(-c3cn4nc(OC)sc4n3)oc2c1 [Example 105] | 3.4 |
| COc1cc(OCc2ccc3c(c2)N(C(=O)c2ccc(OC)nc2)CC3)c2cc(-c3cn4nc(OC)sc4n3)oc2c1 [Example 106] | 1.5 |
| COc1cc(OCc2ccc3c(c2)N(C(C)=O)CC3)c2cc(-c3cn4nc(OC)sc4n3)oc2c1 [Example 107] | 26 |
| COc1cc(OCc2ccc3c(c2)N(C(=O)c2csc(C(F)(F)F)n2)CC3)c2cc(-c3cn4nc(OC)sc4n3)oc2c1 [Example 110] | 0.52 |
| COc1cc(OCc2ccc3c(c2)N(C(=O)c2cc(C)cc(C(F)(F)F)c2)CC3)c2cc(-c3cn4nc(OC)sc4n3)oc2c1 [Example 111] | 6 |

From patent publication US10214544B2, “Imidazopyridazine and imidazothiadiazole compounds” (Universite de Montreal, priority 2015, dated 2019)
